Tests used:
Type in all cases: cell-based
Cav2.3 [1] = target: T1, Cav2.3 (Homo sapiens, UniProt Q15878); assay: Human Cav2.3 channel calcium-influx assay; settings: Fluo8 fluorescence, HEK-293 T-Rex/Kir2.1/Cav2.3e cells, without pluronic acid, read-out: Cav2.3 (pIC50) (converted)
How it was run: (§1)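 Signal = peak fluorescence (5–130 s) minus baseline (1–2 s), normalized to neutral (0) and inhibitor (−100) controls as % effect. Depolarization used final 20 mM KCl, 130 mM NaCl, 2 mM CaCl2, after 3 min RT compound exposure (30 μM top, half-log, 8 points, 0.3% DMSO) in doxycycline-induced HEK-293 T-Rex/Kir2.1/Cav2.3e-β4-α2δ1 cells with Fluo8 NW.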

Cav2.3 [2] = target: T1, Cav2.3; assay: Whole-cell patch clamp assay (QPatch) in HEK-293 T-Rex/Kir2.1/Cav2.3e-β4-α2δ1 cells; settings: QPatch 16X, room temperature, mean ± S.E, read-out: Cav2.3 (pIC50) (converted)
Description: HEK-293 T-Rex/Kir2.1/Cav2.3e-β4-α2δ1 cells were seeded 96 hours before experiment and doxycycline at 0.2 μg/mL was added 24 hours before experiment. Just before the experiments cells were washed twice with D-PBS w/o Ca^2+/Mg^2+ and gently detached from the flask with Detachin. Cells were then re-suspended in the suspension solution (25 mL EX-CELL ACF CHO medium; 0.25 mL of 100× Penicillin/Streptomycin) and placed on the Automated Patch-clamp platform (QPatch 16X).
Standard whole-cell voltage clamp experiments were performed at room temperature using the single hole technology and the following intracellular and extracellular solutions (ICS and ECS, respectively) were used. ICS (mM): CsF 60, CsCl 50, NaCl 10, EGTA 20, BAPTA 5, HEPES 10, NaGTP 0.3, MgATP 5 (pH 7.2; ECS (mM): NMDG-Cl 120, BaCl2 20, HEPES 10, EGTA 7 (pH 7.4). After establishment of the seal and the passage in the whole-cell configuration, the Cav2.3 dependent current was evoked by challenging the cells with the following voltage protocol: the plasma membrane was held at −80 mV then a 50 ms-long depolarizing pulse at 0 mV, followed by a 50 ms-long hyperpolarizing pulse at −100 mV were applied and finally the plasma membrane was held back to −80 mV. This voltage protocol was applied every 10 seconds. Cav2.3 dependent current was first measured in control condition (vehicle, 0.1% DMSO), in the presence of increasing concentration of the compound under investigation and finally SNX 482 was added to fully block any R-type Cav2.3 dependent current.
For data collection, the Sophion proprietary software was used while the analysis was performed off-line using Excel and GraphPad Prism. The inward current (Area Under Curve) measured during each depolarizing pulse was normalized to cell membrane capacitance (Cm) to obtain the average inward current density in each condition (control, compound under investigation and SNX 482). Then, the inhibitory effect of the compound under investigation was evaluated as % of the remaining inward current, normalized to the internal control. […] All data were expressed as mean±S.E

Human Cav2.3 channel = Human Cav2.3 channel calcium-influx assay; settings: Fluo8 fluorescence, HEK-293 T-Rex/Kir2.1/Cav2.3e cells, without pluronic acid
How it was run: as §1

T1 sequence (Q15878 whole entry, looked up): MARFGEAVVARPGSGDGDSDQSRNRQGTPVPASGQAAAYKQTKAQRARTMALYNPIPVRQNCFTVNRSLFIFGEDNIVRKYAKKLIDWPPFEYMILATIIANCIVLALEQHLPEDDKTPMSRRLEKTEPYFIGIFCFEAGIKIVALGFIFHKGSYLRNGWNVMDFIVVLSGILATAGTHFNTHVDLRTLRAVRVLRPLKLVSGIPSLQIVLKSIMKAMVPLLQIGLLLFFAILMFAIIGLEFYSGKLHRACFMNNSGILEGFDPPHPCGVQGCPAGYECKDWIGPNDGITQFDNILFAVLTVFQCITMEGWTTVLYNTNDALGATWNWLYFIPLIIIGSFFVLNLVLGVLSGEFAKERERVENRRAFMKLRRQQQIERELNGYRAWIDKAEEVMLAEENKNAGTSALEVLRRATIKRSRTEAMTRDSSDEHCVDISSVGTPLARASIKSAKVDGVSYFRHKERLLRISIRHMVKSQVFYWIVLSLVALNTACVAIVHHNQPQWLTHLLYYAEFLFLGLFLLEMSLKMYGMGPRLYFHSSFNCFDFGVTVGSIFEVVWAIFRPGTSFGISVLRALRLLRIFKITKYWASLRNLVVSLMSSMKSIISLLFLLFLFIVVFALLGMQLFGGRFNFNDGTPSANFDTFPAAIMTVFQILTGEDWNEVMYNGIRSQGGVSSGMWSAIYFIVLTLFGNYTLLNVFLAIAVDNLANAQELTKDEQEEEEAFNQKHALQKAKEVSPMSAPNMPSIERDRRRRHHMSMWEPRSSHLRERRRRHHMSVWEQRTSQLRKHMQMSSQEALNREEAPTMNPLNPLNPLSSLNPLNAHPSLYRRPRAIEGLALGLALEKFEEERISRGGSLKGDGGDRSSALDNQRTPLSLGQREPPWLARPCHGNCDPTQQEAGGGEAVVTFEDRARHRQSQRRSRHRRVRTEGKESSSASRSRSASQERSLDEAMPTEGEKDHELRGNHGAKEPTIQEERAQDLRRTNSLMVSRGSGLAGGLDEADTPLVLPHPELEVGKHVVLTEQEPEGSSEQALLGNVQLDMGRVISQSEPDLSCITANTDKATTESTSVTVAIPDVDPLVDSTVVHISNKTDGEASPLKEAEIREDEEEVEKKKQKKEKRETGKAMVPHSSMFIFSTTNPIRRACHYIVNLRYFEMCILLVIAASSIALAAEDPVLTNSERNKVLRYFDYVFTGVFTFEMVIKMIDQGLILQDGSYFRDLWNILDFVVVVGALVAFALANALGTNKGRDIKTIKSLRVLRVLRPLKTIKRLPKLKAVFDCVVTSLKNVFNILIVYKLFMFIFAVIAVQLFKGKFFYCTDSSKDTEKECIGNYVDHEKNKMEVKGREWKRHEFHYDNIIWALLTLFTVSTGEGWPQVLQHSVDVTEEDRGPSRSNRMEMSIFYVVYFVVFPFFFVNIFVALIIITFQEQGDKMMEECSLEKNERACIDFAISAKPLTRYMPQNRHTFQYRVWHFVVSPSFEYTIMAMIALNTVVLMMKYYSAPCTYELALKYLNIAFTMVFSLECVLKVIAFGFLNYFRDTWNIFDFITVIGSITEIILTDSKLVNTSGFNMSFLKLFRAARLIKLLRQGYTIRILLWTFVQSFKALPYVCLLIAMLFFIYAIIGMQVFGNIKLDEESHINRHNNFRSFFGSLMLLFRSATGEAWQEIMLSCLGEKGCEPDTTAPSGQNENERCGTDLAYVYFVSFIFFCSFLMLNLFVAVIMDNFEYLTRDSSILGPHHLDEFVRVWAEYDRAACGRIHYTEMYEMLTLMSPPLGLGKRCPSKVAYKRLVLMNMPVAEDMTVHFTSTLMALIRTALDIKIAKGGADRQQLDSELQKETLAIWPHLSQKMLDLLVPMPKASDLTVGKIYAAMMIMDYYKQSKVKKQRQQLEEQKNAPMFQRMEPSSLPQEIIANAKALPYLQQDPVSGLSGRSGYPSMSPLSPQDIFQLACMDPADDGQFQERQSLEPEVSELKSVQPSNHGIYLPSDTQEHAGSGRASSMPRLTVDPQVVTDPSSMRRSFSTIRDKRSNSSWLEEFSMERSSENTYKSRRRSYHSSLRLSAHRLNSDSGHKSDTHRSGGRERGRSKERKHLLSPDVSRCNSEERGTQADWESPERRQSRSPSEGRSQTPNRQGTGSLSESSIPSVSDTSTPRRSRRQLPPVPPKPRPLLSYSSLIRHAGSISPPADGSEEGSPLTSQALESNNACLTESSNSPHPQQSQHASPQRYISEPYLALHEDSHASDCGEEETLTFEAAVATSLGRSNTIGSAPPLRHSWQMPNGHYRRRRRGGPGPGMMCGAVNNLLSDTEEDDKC

SMILES	IC50 (Cav2.3 [1]) [nM]	IC50 (Cav2.3 [2]) [nM]	Cav2.3 (pIC50) (Human Cav2.3 channel)
CCN(C(c1ccc(F)cc1)C(F)(F)F)S(=O)(=O)CC1CCOCC1 (stereo not drawn) [Example 20, N-ethyl-1-(tetrahydro-2H-pyran-4-yl)-N-(2,2,2-trifluoro-1-(4-fluorophenyl)ethyl)methanesulfonamide]	794	708	
Cc1ccc(S(=O)(=O)N(C)[C@H](c2ccc(F)cc2)C(F)(F)F)s1 [Example 13, (R)—N,5-dimethyl-N-(2,2,2-trifluoro-1-(4-fluorophenyl)ethyl)thiophene-2-sulfonamide]		2570	5.41
CCN([C@H](c1ccc(F)cc1)C(F)(F)F)S(=O)(=O)C1CCOCC1 [Example 63, (R)—N-ethyl-N-(2,2,2-trifluoro-1-(4-fluorophenyl)ethyl)tetrahydro-2H-pyran-4-sulfonamide]		302	6.92
CN(C(c1ccc(F)cc1)C(F)(F)F)S(=O)(=O)c1ccc(C#N)s1 (stereo not drawn) [Example 2, 5-cyano-N-methyl-N-(2,2,2-trifluoro-1-(4-fluorophenyl)ethyl)thiophene-2-sulfonamide]		1480	6.14
CCN([C@H](c1ccc(F)cc1)C(F)(F)F)S(=O)(=O)c1cnc(C)nc1 [Example 77, (R)—N-ethyl-2-methyl-N-(2,2,2-trifluoro-1-(4-fluorophenyl)ethyl)pyrimidine-5-sulfonamide]		562	7.01
CN([C@H](c1ccc(Cl)cc1)C(F)(F)F)S(=O)(=O)c1ccn2ncnc2c1 [Example 191, (R)—N-(1-(4-chlorophenyl)-2,2,2-trifluoroethyl)-N-methyl-[1,2,4]triazolo[1,5-a]pyridine-7-sulfonamide]	145	457	
CN([C@H](c1ccc(C(F)(F)F)cc1)C(F)(F)F)S(=O)(=O)c1cncc(C#N)c1 [Example 68, (R)-5-Cyano-N-methyl-N-(2,2,2-trifluoro-1-(4-(trifluoromethyl)phenyl)ethyl)pyridine-3-sulfonamide]	35.5	72.4	
CCN([C@H](c1ccc(F)cc1)C(F)(F)F)S(=O)(=O)c1ccn2ccnc2c1 [Example 136, (R)—N-ethyl-N-(2,2,2-trifluoro-1-(4-fluorophenyl)ethyl)imidazo[1,2-a]pyridine-7-sulfonamide]		64.6	7.50
CN([C@H](c1ccc(Cl)cc1)C(F)(F)F)S(=O)(=O)c1cncc(F)c1 [Example 220, (R)—N-(1-(4-chlorophenyl)-2,2,2-trifluoroethyl)-5-fluoro-N-methylpyridine-3-sulfonamide]	30.2	141	
CCN(C(c1ccc(F)cc1)C(F)(F)F)S(=O)(=O)c1cncnc1 [Example 133, (R)—N-ethyl-N-(2,2,2-trifluoro-1-(4-fluorophenyl)ethyl)pyrimidine-5-sulfonamide]		148	7.20
CN([C@H](c1ccc(Cl)cc1)C(F)(F)F)S(=O)(=O)c1ccc2nccn2c1 [Example 178, (R)—N-(1-(4-chlorophenyl)-2,2,2-trifluoroethyl)-N-methylimidazo[1,2-a]pyridine-6-sulfonamide]	178	380	
CN([C@H](c1ccc(Cl)cc1)C(F)(F)F)S(=O)(=O)c1cncc(C#N)c1 [Example 171, (R)—N-(1-(4-chlorophenyl)-2,2,2-trifluoroethyl)-5-cyano-N-methylpyridine-3-sulfonamide]	25.7	132	
CCN([C@H](c1ccc(F)cc1)C(F)(F)F)S(=O)(=O)c1cncc(N2CCOCC2)c1 [Example 96, (R)—N-ethyl-5-morpholino-N-(2,2,2-trifluoro-1-(4-fluorophenyl)ethyl)pyridine-3-sulfonamide]		67.6	6.95
CCN([C@H](c1ccc(F)cc1)C(F)(F)F)S(=O)(=O)c1cncc(F)c1 (stereo in doubt) [Example 219, N-ethyl-5-fluoro-N-(2,2,2-trifluoro-1-(4-fluorophenyl)ethyl)pyridine-3-sulfonamide]		42.7	
CCN([C@@H](c1ccc(F)cc1)C(F)(F)F)S(=O)(=O)c1ccc(C)s1 [Example 9, (S)—N-ethyl-5-methyl-N-(2,2,2-trifluoro-1-(4-fluorophenyl)ethyl)thiophene-2-sulfonamide]		1910	5.16
CN([C@H](c1ccc(C(F)(F)F)cc1)C(F)(F)F)S(=O)(=O)c1cncnc1 [Example 172, (R)—N-methyl-N-(2,2,2-trifluoro-1-(4-(trifluoromethyl)phenyl)ethyl)pyrimidine-5-sulfonamide]		295	7.23
N#Cc1cncc(S(=O)(=O)N(CCF)[C@@H](c2ccc(F)cc2)C(F)(F)F)c1 [Example 65, (S)-5-Cyano-N-(2-fluoroethyl)-N-(2,2,2-trifluoro-1-(4-fluorophenyl)ethyl)pyridine-3-sulfonamide]	3800		
CCN(C(c1ccc(F)cc1)C(F)(F)F)S(=O)(=O)c1ccc(C(N)=O)s1 (stereo not drawn) [Example 22, 5-(N-ethyl-N-(2,2,2-trifluoro-1-(4-fluorophenyl)ethyl)sulfamoyl)thiophene-2-carboxamide]	741		
COc1ccc([C@H](N(C)S(=O)(=O)C2CCOCC2)C(F)(F)F)cc1 [Example 128, (S)—N-methyl-N-(2,2,2-trifluoro-1-(4-methoxyphenyl)ethyl)tetrahydro-2H-pyran-4-sulfonamide]	14100		
CCN([C@@H](c1ccc(F)cc1)C(F)(F)F)S(=O)(=O)c1ccc(C#N)s1 [Example 4, (S)-5-cyano-N-ethyl-N-(2,2,2-trifluoro-1-(4-fluorophenyl)ethyl)thiophene-2-sulfonamide]		447	5.30
CCN([C@H](c1ccc(F)cc1)C(F)(F)F)S(=O)(=O)c1ccc2sc(N)nc2c1 [Example 155, (R)-2-amino-N-ethyl-N-(2,2,2-trifluoro-1-(4-fluorophenyl)ethyl)benzo[d]thiazole-5-sulfonamide]	1910		
CCN([C@H](c1ccc(F)cc1)C(F)(F)F)S(=O)(=O)c1ccc2nnc(C)n2n1 [Example 168, (R)—N-ethyl-3-methyl-N-(2,2,2-trifluoro-1-(4-fluorophenyl)ethyl)-[1,2,4]triazolo[4,3-b]pyridazine-6-sulfonamide]	2190		
CCN([C@H](c1ccc(F)cc1)C(F)(F)F)S(=O)(=O)c1ccc2[nH]nnc2c1 [Example 189, (R)—N-ethyl-N-(2,2,2-trifluoro-1-(4-fluorophenyl)ethyl)-1H-benzo[d][1,2,3]triazole-5-sulfonamide]	166		
CCN([C@H](c1ccc(F)cc1)C(F)(F)F)S(=O)(=O)c1cnc2ncsc2c1 [Example 151, (R)—N-ethyl-N-(2,2,2-trifluoro-1-(4-fluorophenyl)ethyl)thiazolo[4,5-b]pyridine-6-sulfonamide]	170		
CCN([C@H](c1ccc(F)cc1)C(F)(F)F)S(=O)(=O)c1ccc2nnc(C(F)(F)F)n2n1 [Example 169, (R)—N-ethyl-N-(2,2,2-trifluoro-1-(4-fluorophenyl)ethyl)-3-(trifluoromethyl)-[1,2,4]triazolo[4,3-b]pyridazine-6-sulfonamide]	5750		
CCN([C@H](c1ccc(F)cc1)C(F)(F)F)S(=O)(=O)c1ccc2ncn(C)c2c1 [Example 164, (R)—N-ethyl-1-methyl-N-(2,2,2-trifluoro-1-(4-fluorophenyl)ethyl)-1H-benzo[d]imidazole-6-sulfonamide]	174		
CN([C@H](c1ccc(Cl)cc1)C(F)(F)F)S(=O)(=O)c1cn2ccnc2cn1 [Example 199, (R)—N-(1-(4-chlorophenyl)-2,2,2-trifluoroethyl)-N-methylimidazo[1,2-a]pyrazine-6-sulfonamide]	1150		
CCN([C@H](c1ccc(F)cc1)C(F)(F)F)S(=O)(=O)c1ccc(C#N)s1 [Example 5, (R)-5-cyano-N-ethyl-N-(2,2,2-trifluoro-1-(4-fluorophenyl)ethyl)thiophene-2-sulfonamide]		1350	6.56

Source: patent US20250115569A1, “SULFONAMIDE COMPOUNDS FOR THE TREATMENT OF NEUROLOGICAL CONDITIONS” (LARIO THERAPEUTICS LIMITED, priority 2021, published 2025)
